In patent US20030216571A1, “Tricyclic compounds” (priority 1999, published 2003):

Columns and labels:
[1] = test system: Leukotriene D4 induced respiratory constriction; assay: Leukotriene D4 induced respiratory constriction test; format: in vivo; settings: p.o. 1 hr before i.v. LTD4; anesthetized Hartley male guinea pigs; respiratory inner pressure
Description: Leukotriene D4 Induced Respiratory Constriction Test
Respiratory constriction was measured by modifying the method of Konzett and Rossler (Arch. Exp. Pathol. Pharmakol., 195, pp. 71-74 (1940)). Hartley male guinea pigs (400 to 500 g body weight, Nippon SLC Co.) were anesthetized with pentobarbital (50 mg/kg, s.c.), and a cannula was inserted into the trachea to carry out artificial ventilation with an artificial ventilator (manufactured by Harvard Co., Model 683). An inner pressure of the respiratory tract was measured by a differential pressure transducer (Nihon Koden, TP-603T) connected to the respiratory cannula and it is used as an index of respiratory constriction.
LTD4 (0.03, 0.06, 0.13, 0.25, 0.5, 1 and 2 μg/kg, Sigma Co.) was intravenously administered from a cannula inserted into the right jugular vein from a low dose with an interval of 5 minutes to cause a respiratory constriction reaction and an increased amount of a respiratory inner pressure was measured. Test compound was suspended in 0.5% sodium carboxymethyl cellulose aqueous solution, and orally administered 1 hour before administration of LTD4. Animals were fasted for 24 hours before administration of the Test compound.
A2=(Dose of Compound administered)/{(ED50 of group to which Compound was added)/(ED50 of control group)−1}

Leukotriene D4 receptor = molecular target: T1, Leukotriene D4 receptor (Cavia porcellus, UniProt Q2NNR5); assay: Leukotriene D4 receptor binding test; settings: binding inhibition constant (Ki) vs [3H] LTD4 0.2 nM; lung cell membrane fraction from guinea pigs; 25° C. for 30 minutes; read-out: pKi value (converted)
T1 construct: As a receptor sample, a lung cell membrane fraction from guinea pigs was used; from tissue; host or cells: lung membrane fraction of Hartley male guinea pigs
T1 sequence (Q2NNR5 1-340): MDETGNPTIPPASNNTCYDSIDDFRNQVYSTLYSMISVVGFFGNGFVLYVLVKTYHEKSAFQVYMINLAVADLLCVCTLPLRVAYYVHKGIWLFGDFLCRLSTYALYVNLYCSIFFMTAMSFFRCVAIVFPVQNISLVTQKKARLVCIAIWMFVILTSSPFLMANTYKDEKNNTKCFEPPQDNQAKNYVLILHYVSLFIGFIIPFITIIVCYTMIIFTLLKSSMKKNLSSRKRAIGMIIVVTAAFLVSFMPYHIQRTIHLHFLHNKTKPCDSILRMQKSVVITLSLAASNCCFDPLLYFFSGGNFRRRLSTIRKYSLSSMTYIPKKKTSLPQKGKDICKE
Description: Leukotriene D4 Receptor Binding Test
As a receptor sample, a lung cell membrane fraction from guinea pigs was used. Preparation of the membrane fraction was carried out according to the method of Ahn et al. (Eur. J. Pharmacol., 127, 153-155 (1986)). Lungs of Hartley male guinea pigs (400 to 500 g body weight, Nippon SLC Co.) were extracted, and perfused with a physiological saline, and then, adding 10 mM of PIPES, 10 mM of MgCl2 and 10 mM of CaCl2 buffer (pH 7.5) to the lung tissue and the mixture was homogenized. This homogenate was centrifuged at 70,000 xg for 10 minutes to obtain a membrane fraction.
Leukotriene D4 (LTD4) recepter binding test was carried out according to the method of Aharony, et al. (J. Pharmacol. Expl.Ther., 243, 921-926 (1987)). To 0.42 mg of the receptor sample were added 10 mM of PIPES, 10 mM of MgCl2 and 10 mM of CaCl2 buffer (pH 7.5) to make the total amount of 480 μl, and 10 μl of [^3H] LTD4 (NEN Life Science Products Co.) and 10 μl of a Test compound in dimethylsulfoxide were added to the mixture, and the resulting mixture was incubated at 25° C. for 30 minutes. The mixtures thus incubated were filtered through a glass fiber filter (Whatman Co., GF/C) using cell harvester (Brandel Co., M-30R). The filter were washed with 10 mM of Tris. and 100 mM of NaCl buffer (pH 7.5), and 5 ml of a liquid scintillator (NACALAI TESQUE INC., clearsol I), and radioactivity was measured by a liquid scintillation analyzer (Packard Co., 2000CA). When a dissociation constant (Kd) of LTD4 was to be obtained, [^3H] LTD4 with 0.03 to 0.5 nM was used, and 1 μM of non-radioactive LTD4 was added. When a binding inhibition constant (Ki) of the Test compound is to be meaured, [^3H] LTD4 with 0.2 nM was used. Kd and Ki are calculated according to the method of Bennett et al. (Neurotransmitter Receptor Binding, 2nd ed., edited by H. I. Yamamura et al., pp. 61-89, Raven Press (1985)).

Structure (SMILES) | melting point | A2 (dose of Test compound required for shifting two-times the LTD4 dose-reaction curve of control group to higher dose side) [1] | Ki (Leukotriene D4 receptor)
C[C@@H](CSC1c2ccccc2COc2ccc(/C=C/c3ccc4ccc(F)cc4n3)cc21)C(=O)[O-].[Na+] (stereo partly drawn) [Example 19, Sodium 3-{[2-[(E)-2-(7-fluoro-2-quinolinyl)ethenyl]-6,11-dihydrodibenz[b,e]oxepin-11-yl]thio}-2-(R)-methylpropionate] | 195 to 205 °C | 2.4 µg/kg | 0.2 nM
C#Cc1cccc2c1COc1ccc(/C=C/c3ccc4cc(F)c(F)cc4n3)cc1C2SCCC(=O)[O-].[Na+] (stereo not drawn) [Example 15, Sodium 3-{[2-[(E)-2-(6,7-difluoro-2-quinolinyl)ethenyl]-7-ethynyl-6,11-dihydrodibenz[b,e]oxepin-11-yl]thio}propionate] | 186 to 189 °C | 0.8 µg/kg | 0.158 nM
C[C@@H](CSC1c2ccccc2COc2ccc(/C=C/c3ccc4cc(F)c(F)cc4n3)cc21)C(=O)[O-].[Na+] (stereo partly drawn) [Example 44, Sodium 3-{[2-[(E)-2-(6,7-difluoro-2-quinolinyl)ethenyl]-6,11-dihydrodibenz[b,e]oxepin-11-yl]thio}-2-(R)-methylpropionate] | 196 to 220 °C | 5 µg/kg | 0.2 nM
